According to patent US11802107B2, “Compounds and methods of use” (Signum Biosciences, Inc., priority 2017, dated 2023):

Tests used:
Balb/C mice = assay: Oxazolone-induced delayed-type hypersensitivity (DTH) in vivo model
In short: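 Male Balb/C mice (8-10 weeks) sensitized with 3% oxazolone on dorsal skin, ear-challenged on day 7 with 0.5%; test materials at 3% w/v topically to both ear surfaces 30 min post-challenge in 60:40 H2O:EtOH. Ear edema and IL-4 ELISA of 6-mm biopsies at 24 h; % inhibition, n=5-15/group.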

IL-4 = assay: T-cell receptor (anti-CD3/CD28)-induced IL-4 on PBMCs; format: cell-based; conditions: Homo sapiens, PBMC, anti-CD3/CD28 beads, 24 hours, ELISA, read-out: TCR-PBMCs IL-4 Protein IC50
Description: Cryopreserved human Peripheral Blood Mononuclear cells (PBMCs) from healthy adult donors were obtained from Zen Bio, Inc (Cat No. SER-PBMC-F). Cells were cultured in 96-well plates with lymphocyte media (Cat No. LYMPH-1) and were pre-treated with test materials (≤100 μM) for 2 hours and later co-treated with test materials and anti-CD3/CD28 beads (Thermo-Fisher; Cat No. 11131D) at 1:0.4 PBMC:bead ratio for 24 hours at 37° C. and 5% CO2. After incubation, cell media supernatants were harvested and used to measure cytokine levels (IL-4, IL-5, IL-10) using ELISA kits (BD Biosciences® #555194, #555157; R&D Systems® #DY317). Results were represented as percent of inhibition relative to untreated and anti-CD3/CD28 beads-only treated cells. IC50 values were determined by non-linear regression analysis using the four-parameter logistic equation.

IL-17 [1] = assay: Concanavalin-A-induced IL-17 on PBMCs; format: cell-based; conditions: Homo sapiens, PBMC, ConA, 24 hours, ELISA
IL-17 [2] = assay: P. acnes-induced IL-17 protein on human PBMCs (ELISA); format: cell-based; conditions: PBMC, PBMCs + live P. acnes 1:1, test material 30 PM, 24 hours
Description: (§1) Cryopreserved human Peripheral Blood Mononuclear cells (PBMCs) from healthy adult donors were obtained from Zen Bio, Inc (Cat No. SER-PBMC-F). Cells were cultured in 12-well plates with lymphocyte media (Cat No. LYMPH-1) and incubated with test materials ([…]) and live P. acnes (ATCC® 6919TM) at 1:1 PBMC: P. acnes bacteria ratio for 24 hours at 37° C. and 5% CO2. After incubation, cell media supernatants were harvested and used to measure pro-inflammatory cytokine levels (IL-8, TNF-α, IL-1b, IL-17) using ELISA kits (BD Biosciences® #557966, #555212, #555244; R&D Systems® #DY317). Total RNA was extracted from cells using the RNAqueous® kit (Ambion®; Cat No. 1912) and cDNA was obtained using the High Capacity RNA-to-cDNA kit (Applied Biosystems®; Cat No. 4387406). Quantitative PCR (qPCR) was performed using the TaqMan® Fast Advanced Master Mix (Applied Biosystems®; Cat No. 4444556) and specific TaqMan®-probes human gene primers CXCL8 (IL-8), IL1B (IL-1b), TNF (TNF-α), IL17A (IL-17A) and GAPDH to calculate the relative gene fold expression change per treatment. Gene expression analysis was performed using the comparative Ct method (also known as the 2-[delta][delta]Ct) approach by comparing the Ct values of P. acnes-only treated cells with the untreated samples and normalized to GAPDH gene expression as endogenous housekeeping gene.

IL-8 = assay: P. acnes-induced IL-8 on human NHEKs; format: cell-based; conditions: for IC50: Homo sapiens, NHEK, live P. acnes 10^7 CFU, 24 hours, ELISA, read-out: P. acnes-NHEK IL-8 Protein IC50; for P. acnes-induced IL-8 production: cultured human keratinocytes exposed to P. acnes
Description: Normal human epidermal keratinocytes (NHEKs) from neonatal donors were obtained from Thermo-Fisher (Cat No. C-001-5C). Cells were cultured in 96-well plates for 24 hours with EpiLife media (Cat No. MEPI500CA) supplemented with keratinocytes growth supplement (Cat No. S0015). On Day 2, media was removed and replaced with supplement-depleted medium for 24 hours. On Day 3, media was removed and cells were pre-treated with test materials ([…]) for 2 hours and later co-treated with test materials and live P. acnes (ATCC® 6919TM) at 10^7 CFU for 24 hours at 37° C. and 5% CO2. After incubation, cell media supernatants were harvested and used to measure pro-inflammatory cytokine levels (IL-8) using ELISA kits (BD Biosciences® #555244). Results were represented as percent of inhibition relative to untreated and P. acnes-only treated cells. IC50 values were determined by non-linear regression analysis using the four-parameter logistic equation.

IL-1b = assay: P. acnes-induced IL-1b protein on human PBMCs (ELISA); format: cell-based; conditions: PBMC, PBMCs + live P. acnes 1:1, test material 30 PM, 24 hours
Description: as §1

TNF (TNF-α) = assay: P. acnes-induced TNF-α gene on human PBMCs (qPCR); format: cell-based; conditions: PBMC, PBMCs + live P. acnes 1:1, test material 30 PM, 24 hours, read-out: TNFa-Gene % inhibition
Description: as §1

TNF-α = assay: P. acnes-induced TNF-α protein on human PBMCs (ELISA); format: cell-based; conditions: PBMCs + live P. acnes 1:1, test material 30 PM, 24 hours
Description: as §1

[3] = Mus musculus, topical to ears @ 3% w/v, 24 hours, read-out: Edema % inhibition
[4] = topical to ears @ 3% w/v, 24 hours, ear biopsy ELISA

| SMILES | IC50 (IL-4) | IC50 (IL-17 [1]) | IC50 (IL-8) | inhibition at 30 pM (IL-17 [2]) | inhibition in vivo at 3 % strength (Balb/C mice; [3]) | inhibition at 30 pM (IL-1b) | inhibition at 30 pM (TNF (TNF-α)) | Edema (% inhibition) (Balb/C mice; dose 0.2 Mg/ear, average±S.E.) | MPO (% inhibition) (Balb/C mice; dose 0.2 Mg/ear, average±S.E.) | Edema (% inhibition) (Balb/C mice; dose 0.6 Mg/ear, average±S.E.) | MPO (% inhibition) (Balb/C mice; dose 0.6 Mg/ear, average±S.E.) | Edema (% inhibition) (Balb/C mice; dose 1 Mg/ear, average±S.E.) | MPO (% inhibition) (Balb/C mice; dose 1 Mg/ear, average±S.E.) | IL-4 (% inhibition) (Balb/C mice; [4]) | TNFa-Protein % inhibition (TNF-α) | P. acnes-induced IL-8 production (IL-8) | further results |
| --- | --- | --- | --- | --- | --- | --- | --- | --- | --- | --- | --- | --- | --- | --- | --- | --- | --- |
| C/C(=C\CSCC(NC(=O)NCC(=O)O)C(=O)O)CCCC(C)CCCC(C)CCCC(C)C (stereo not shown) [A] | > 100 µM |  | 0.12 µM | 32% | 44% | 38% |  |  |  |  |  |  |  |  |  |  |  |
| C/C(=C\CSC[C@H](NC(=O)N1CCC[C@H]1C(=O)O)C(=O)O)CCCC(C)CCCC(C)CCCC(C)C (stereo partly shown) [Compound E] | 42 µM | 11.4 µM | 0.003 µM | 23% | 51% | 82% | 0% |  |  | 22% |  | 51 ± 9% |  |  | 0% | inhibit IL-8 production |  |
| C/C(=C\CSCC(NC(=O)N(CC(=O)O)CC(=O)O)C(=O)O)CCCC(C)CCCC(C)CCCC(C)C (stereo not shown) [Compound G] |  | 94.2 µM | 0.068 µM | 29% | 41% | 91% | 0% |  |  | 41% |  |  |  |  | 0% | inhibit IL-8 production |  |
| C/C(=C\CSC[C@H](NC(=O)COCC(=O)O)C(=O)O)CCCC(C)CCCC(C)CCCC(C)C (stereo partly shown) [Compound T] | 25 µM | 69.7 µM |  |  | 31% |  | 0% | 20 ± 4% | 30 ± 14% | 31 ± 6% | 41 ± 18% | 53 ± 8% | 71 ± 3% | 53% |  |  |  |

Second part, led by results:

| IC50 (IL-4) | IC50 (IL-17 [1]) | IC50 (IL-8) | SMILES | inhibition at 30 pM (IL-17 [2]) | inhibition in vivo at 3 % strength (Balb/C mice; [3]) | inhibition at 30 pM (IL-1b) | inhibition at 30 pM (TNF (TNF-α)) | Edema (% inhibition) (Balb/C mice; dose 0.2 Mg/ear, average±S.E.) | MPO (% inhibition) (Balb/C mice; dose 0.2 Mg/ear, average±S.E.) | Edema (% inhibition) (Balb/C mice; dose 0.6 Mg/ear, average±S.E.) | MPO (% inhibition) (Balb/C mice; dose 0.6 Mg/ear, average±S.E.) | Edema (% inhibition) (Balb/C mice; dose 1 Mg/ear, average±S.E.) | MPO (% inhibition) (Balb/C mice; dose 1 Mg/ear, average±S.E.) | IL-4 (% inhibition) (Balb/C mice; [4]) | TNFa-Protein % inhibition (TNF-α) | P. acnes-induced IL-8 production (IL-8) | further results |
| --- | --- | --- | --- | --- | --- | --- | --- | --- | --- | --- | --- | --- | --- | --- | --- | --- | --- |
| 2 µM | 3.1 µM |  | N#Cc1ccc(Oc2ccc3c(c2)COB3O)cc1 [AN2728, reference compound] |  |  |  |  |  |  |  |  |  |  |  |  |  | inhibition in vivo at 2 % (Balb/C mice; Mus musculus, topical @2%, 24 hours, read-out: Edema % inhibition): 0%; Edema (% inhibition) (Balb/C mice; dose 0.4 Mg/ear, average±S.E.): 17 ± 5%; IL-4 (% inhibition) (Balb/C mice; dose 0.4 Mg/ear, average±S.E.): 76 ± 9%; MPO (% inhibition) (Balb/C mice; dose 0.4 Mg/ear, average±S.E.): 36 ± 12%; IL-4 (% inhibition) (Balb/C mice; topical @2%, 24 hours): 76 (@2%) |
| 20 µM | 0.5 µM | 0.04 µM | C/C(=C\CSC[C@H](NC(=O)N(C)CC(=O)O)C(=O)O)CCCC(C)CCCC(C)CCCC(C)C (stereo partly drawn) [Compound C, (2R)-2-{[(carboxymethyl)(methyl)carbamoyl]amino}-3-{[(2E)-3,7,11,15-tetramethylhexadec-2-en-1-yl]sulfanyl}propanoic acid] | 0% | 53% | 36% | 0% | 23 ± 4% | 22 ± 9% | 53 ± 5% | 67 ± 23% | 72 ± 4% | 81 ± 5% | 41% | 0% |  | IL-4 (% inhibition) (Balb/C mice; dose 0.2 Mg/ear, average±S.E.): 33 ± 9%; IL-4 (% inhibition) (Balb/C mice; dose 0.6 Mg/ear, average±S.E.): 41 ± 10%; IL-4 (% inhibition) (Balb/C mice; dose 1 Mg/ear, average±S.E.): 62 ± 11% |
